Assay results published in patent US7169580B1, “Protein having PGE2 synthase activity and use thereof” (Chugai Seiyaku Kabushiki Kaisha, priority 2000, dated 2007).
Positions count from the first letter of the chain named. “Also recorded” adds a separate entry of the source.

Experiments:
Assay type in all cases: biochemical
PGES-1 = target: T1, PGES-1 (Homo sapiens, UniProt Q15185); assay: PGES activity in lysate of HEK293 cells transfected with PGES-1 cDNA; settings: lysate of HEK293 cells transfected with PGES-1, coexistence of CDNB
T1 construct: the cDNA of full-length human progesterone receptor complex component protein p23 was isolated by RT-PCR; expressed in transfected cells; host or cells: HEK293
T1 sequence (Q15185 1-160): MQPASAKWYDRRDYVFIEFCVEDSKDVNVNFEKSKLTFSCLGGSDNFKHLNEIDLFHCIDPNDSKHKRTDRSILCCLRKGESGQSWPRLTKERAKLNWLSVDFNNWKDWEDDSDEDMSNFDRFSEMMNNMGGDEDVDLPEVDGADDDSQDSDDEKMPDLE
Description: (§1) PGES activity was measured as follows: Cells suspended in 20 mmol/L Tris-hydrochloride buffer (pH 7.4) were homogenized using ultrasonic homogenizer (Branson Sonifier Model 200) and centrifuged at 800×g for 5 minutes at 4° C., and the supernatant was used as the cell lysate in the following. 0.5 μg of PGH2 was added to the lysate, which was suspended with 0.1 mol/L Tris-hydrochloride buffer (pH 8.0) containing 1 mmol/L GSH, with a protein content of 10 μg, was incubated for 30 seconds at 24° C., and then 8 mmol/L FeCl2 was added to terminate the reaction. The amount of produced PGE2 was measured by Enzyme Immunoassay Kit (Cayman), and PGES activity was expressed as the amount of PGE2 produced per 30 seconds, per 10 μg of protein (ng/30 sec/10 μg protein).
Peptide mapping of PGES-1 protein was carried out using V8 protease, and 3 fragments among the peptide fragments were analyzed by N-terminal amino acid sequence analyzer to determine the partial amino acid sequence thereof. According to GenBank database search with one of these amino acid sequences, the sequence completely matched to a portion of a known sequence reported as the human progesterone receptor complex component protein p23 (Johnson, J L et al., Mol. Cell. Biol., 14:1956–63, 1994). […] Thus, the cDNA was confirmed to encode the desired PGES.

PGES-2 = target: T2, PGES-2 (Homo sapiens, UniProt O14684); assay: PGES activity in HEK293 cells transfected with PGES-2; settings: HEK293 cells transfected with PGES-2, coexistence of CDNB
T2 construct: expressed in transfected cells; host or cells: HEK293
T2 sequence (O14684 1-152): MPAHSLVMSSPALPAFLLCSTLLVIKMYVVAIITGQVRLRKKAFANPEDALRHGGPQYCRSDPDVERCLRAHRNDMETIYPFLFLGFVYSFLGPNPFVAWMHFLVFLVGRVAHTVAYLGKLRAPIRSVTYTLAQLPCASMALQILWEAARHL
Description: as §1

[1] = target: T3, PGES activity of peak C (PGES-1) (Rattus norvegicus, UniProt P83868); assay: PGES activity of Superdex 200 gel filtration fractions of rat brain soluble fraction; settings: Superdex 200 peak C (approximately 50 kDa), in contrast to peaks A and B
T3 construct: from tissue; host or cells: brain of LPS-administered rat: 100,000 x g supernatant, 60-80% ammonium sulfate, DEAE-Sephacel, Superdex 200 peak C
T3 sequence (P83868 1-160): T1 sequence (Q15185 1-160) with N128D, N129H
Description: as §1
150 μg/kg body LPS (Salmonella minnesota: Re595) was administered intravenously from rat tail. Rat brain was removed 2 days after the injection and was homogenized using Potter's homogenizer at 4° C. […]
A protein of a molecular weight of about 27 kDa, corresponding with the PGES activity (PGES-1), was obtained by SDS electrophoretic analysis of peak C (FIG. 3, bottom). The production of this protein was predicted to elevate in response to inflammatory stimulus due to the fact that large amount of the protein was detected in LPS-administered rats than in normal rats.

O=[N+]([O-])c1ccc(Cl)c([N+](=O)[O-])c1 [CDNB, 1-chloro-2,4-dinitrobenzene]
effect of CDNB on GSH-dependent PGES activity of recombinant PGES-1 (PGES-1): CDNB sensitive; also recorded: suppressed
effect of CDNB on GSH-dependent PGES activity of recombinant PGES-2 (PGES-2): CDNB insensitive; also recorded: not suppressed
effect of CDNB on PGES activity of peak C [1]: strongly inhibited
